Experimental data reported in paper PMC4935606 (Organic & biomolecular chemistry, 2016).

Assays:
[1] = Spontaneous conversion of 1 to 13 under the assay conditions; format: physicochemical; conditions: 90 min, in the presence or absence of DTT
[2] = Side-by-side LCMS/UV solution stability study; format: physicochemical; conditions: 0.1 mg/mL in DMSO/H2O (5:1), within 24 h
[3] = system: cells; conditions: ref 7b; cited from earlier work
[4] = system: tumor cell; conditions: cited from earlier work
[5] = target: recombinant human PTP4A3 (Homo sapiens, UniProt O75365); assay: In vitro PTP4A3 phosphatase inhibition assay with DiFMUP substrate; format: biochemical
Sequence of recombinant human PTP4A3 (O75365 whole entry): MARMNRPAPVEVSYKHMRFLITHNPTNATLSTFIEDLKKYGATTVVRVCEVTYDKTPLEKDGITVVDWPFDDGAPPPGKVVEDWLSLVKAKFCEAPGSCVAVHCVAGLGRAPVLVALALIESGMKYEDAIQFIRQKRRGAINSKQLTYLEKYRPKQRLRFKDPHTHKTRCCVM

| SMILES | Spontaneous conversion of 1 to 13 [1] [%] | Decomposition [2] [%] | Short-term cytotoxicity in cells [3] | Inhibition of tumor cell anchorage-independent growth [4] | PTP4A3 inhibition (in words) ([5]; qualitative statement) | IC50 ([5]; read-out: IC50 [µM±S.D.], inhibition of PTP4A3 activity, n=3, DiFMUP 12 µM, 25 °C, 30 min, pH 7.0, 4 mM DTT) [µM] |
| --- | --- | --- | --- | --- | --- | --- |
| Nc1c[nH]c(=O)c2cc(-c3ccccc3)sc12 [Compound 1] | ≤ 5 | > 80 | does not have any short-term cytotoxicity | Significant inhibition |  |  |
| O=c1[nH]ccc2sc(-c3ccccc3)cc12 [Compound 12] |  |  |  |  | remarkably less active than 1 | > 80 |
